Experimental data: US20110053908A1, “AZETIDINE-DERIVED COMPOUNDS, PREPARATION METHOD THEREFOR AND THERAPEUTIC USE OF SAME” (SANOFI-AVENTIS, priority 2008, published 2011)
Structures can show the parent of a compound that is named as a salt.

What was measured:
[1] = biological target: T1, CB1-type cannabinoid receptor (Mus musculus, UniProt P47746); experiment: inhibition of gastrointestinal transit induced by racemic CP55,940 in mice (charcoal bolus); type: in vivo; conditions: 1 mg/kg po; male CD1 mice; CP55,940 0.15 mg/kg ip; progression of charcoal bolus
T1 construct: male CD1 mice receive the test product per os; from tissue; host or cells: whole animal, male CD1 mice
Description: Thirty minutes later, the animals are sacrificed by euthanasia (CO2/O2) and the intestine is dissected. The progression of the charcoal bolus in the intestine is expressed as percentage of the total length of the intestine.
Consequently, the compounds of the invention of formula (I) are in vitro and in vivo CB1-type cannabinoid receptor antagonists. Some compounds are active in vivo with regard to both the hypothermia test and the transit test, and some compounds show activities split up between the hypothermia test and the transit test.

[2] = biological target: T2, human CB1 receptor (Homo sapiens, UniProt P21554); experiment: intracellular cyclic AMP functional test in U373MG cells (HTRF cAMP Dynamic Kit); type: cell-based; conditions: U373MG cells naturally expressing the human CB1 receptor
T2 construct: U373MG cells naturally expressing the human CB1 receptor; endogenous in cells; host or cells: U373MG cells
Description: The compounds according to the invention have formed the subject of pharmacological assays which make it possible to determine the activity with regard to human CB1-type cannabinoid receptors. The effectiveness of the compounds of formula (I) was determined in a functional test in which the activity of the CB1 cannabinoid receptors is measured (intracellular cyclic AMP test). The test for detecting intracellular cyclic AMP in U373MG cells naturally expressing the human CB1 receptor was carried out as described in the reference: Bouaboula et al., 1995, J. Biol. Chem. 270: 13973-13980. The HTRF cAMP Dynamic Kit from CisBio was used to quantify the intracellular cyclic AMP. In this test, the IC50 values are between 0.001 μM and 2 μM.

[3] = biological target: T3, CB cannabinoid receptor (Mus musculus, UniProt P47746); experiment: hypothermia induced by CB agonist racemic CP55,940 in mice (rectal temperature); type: in vivo; conditions: 3 mg/kg po; male CD1 mice; CP55,940 1.25 mg/kg i.p.; rectal temperature at 90 minutes
T3 construct: from tissue; host or cells: whole animal, male CD1 mice
Description: Other assays consisting in measuring the in vivo activity of the compounds of the invention were carried out. Their antagonist activity was shown by means of the model of […] induced by a CB cannabinoid receptor agonist (racemic CP55,940 ((1RS,3RS,4RS)-3-[2-hydroxy-4-(1,1-dimethylheptyl)phenyl]-4-(3-hydroxypropyl)cyclohexan-1-ol) at a dose of 1.25 mg/kg) in mice, according to the method described by Pertwee R. G. in Marijuana 84, Harvey D. J. eds., Oxford IRL
Press, 263-277 (1985). At time 0 min, the rectal temperature of male CD1 mice is measured before injection of the test product. At 30 minutes, a further measurement of the rectal temperature of the mice is taken and the racemic CP55,940 agonist ((1RS,3RS,4RS)-3-[2-hydroxy-4-(1,1-dimethylheptyl)phenyl]-4-(3-hydroxypropyl)cyclohexan-1-ol) (1.25 mg/kg i.p. in 10% cremophor) is administered. At 90 minutes, the rectal temperature is again measured. The results are expressed as % with respect to the control batched injected with CP 55,940 (minimum temperature) and to the carrier batch without treatment with CP55,940 (maximum temperature).

T2 sequence (P21554 whole entry): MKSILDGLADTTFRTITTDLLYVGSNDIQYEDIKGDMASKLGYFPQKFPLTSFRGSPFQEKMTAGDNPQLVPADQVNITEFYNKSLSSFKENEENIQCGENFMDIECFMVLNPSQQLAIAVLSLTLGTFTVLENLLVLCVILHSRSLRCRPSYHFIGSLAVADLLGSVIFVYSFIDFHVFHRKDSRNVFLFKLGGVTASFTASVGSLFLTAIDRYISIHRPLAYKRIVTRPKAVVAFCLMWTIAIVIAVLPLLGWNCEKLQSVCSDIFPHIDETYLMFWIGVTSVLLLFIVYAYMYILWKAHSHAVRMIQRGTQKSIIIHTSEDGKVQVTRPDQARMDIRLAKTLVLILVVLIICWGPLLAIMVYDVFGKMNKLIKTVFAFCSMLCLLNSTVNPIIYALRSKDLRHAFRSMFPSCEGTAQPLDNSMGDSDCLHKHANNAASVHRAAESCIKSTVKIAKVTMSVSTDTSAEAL
T1 sequence (P47746 whole entry): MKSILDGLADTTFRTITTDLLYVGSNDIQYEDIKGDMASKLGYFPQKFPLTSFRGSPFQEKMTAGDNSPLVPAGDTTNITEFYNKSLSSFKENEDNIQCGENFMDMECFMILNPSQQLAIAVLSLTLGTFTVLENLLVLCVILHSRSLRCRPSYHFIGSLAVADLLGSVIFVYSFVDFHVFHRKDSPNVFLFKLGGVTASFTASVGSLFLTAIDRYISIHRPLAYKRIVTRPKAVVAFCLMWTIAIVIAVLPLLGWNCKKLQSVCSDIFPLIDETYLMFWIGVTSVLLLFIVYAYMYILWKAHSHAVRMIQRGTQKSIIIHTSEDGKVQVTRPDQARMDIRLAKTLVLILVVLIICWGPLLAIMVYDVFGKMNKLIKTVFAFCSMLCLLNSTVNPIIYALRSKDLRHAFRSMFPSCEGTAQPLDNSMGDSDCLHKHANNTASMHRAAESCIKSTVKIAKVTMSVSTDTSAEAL
T3 sequence (P47746 whole entry): as above

| percentage of inhibition [1] | IC50 [2] | percentage of inhibition [3] | melting point | SMILES |
| --- | --- | --- | --- | --- |
| 91% |  |  |  | CS(=O)(=O)N(c1cc(C(=O)N[C@H]2CCC[C@@H]2O)cc(C(F)(F)F)c1)C1CN(C(c2ccc(Cl)cc2)c2ccc(Cl)cc2)C1 (racemic) [compound 41, 3-({1-[bis(4-chlorophenyl)methyl]azetidin-3-yl} (methanesulphonyl)amino)-N-((1SR,2SR)-2-hydroxycyclopent-1-yl)-5-(trifluoromethyl)benzamide] |
|  | 72 nM |  |  | CS(=O)(=O)N(c1cc(F)cc(C(=O)N[C@H]2COC[C@@H]2O)c1)C1CN(C(c2ccc(Cl)cc2)c2ccc(Cl)cc2)C1 (racemic) [compound 47, 3-({1-[bis(4-chlorophenyl)methyl]azetidin-3-yl}(methanesulphonyl)amino)-5-fluoro-N-((3SR,4RS)-4-hydroxytetrahydrofuran-3-yl)benzamide] |
|  |  | 18% | 148 to 150 °C | CC(CO)NC(=O)c1cc(F)cc(N(C2CN(C(c3ccc(Cl)cc3)c3ccc(Cl)cc3)C2)S(C)(=O)=O)c1 (single isomer, unassigned; (+)) [Compound No. 25, (+)-3-({1-[Bis(4-chlorophenyl)methyl]azetidin-3-yl}(methanesulphonyl)amino)-5-fluoro-N-(2-hydroxy-1-methylethyl)benzamide] |
|  | 22 nM |  |  | CC1(C)OCC(CNC(=O)c2cccc(N(C3CN(C(c4ccc(Cl)cc4)c4ccc(Cl)cc4)C3)S(C)(=O)=O)c2)O1 (single isomer, unassigned; (-)) [Compound No. 5, (−)-3-({1-[Bis(4-chlorophenyl)methyl]azetidin-3-yl}(methanesulphonyl)amino)-N-(2,2-dimethyl-1,3-dioxolan-4-ylmethyl)benzamide] |
|  | 61 nM |  |  | CS(=O)(=O)N(c1cccc(C(=O)NCCO)c1)C1CN(C(c2ccc(Cl)cc2)c2ccc(Cl)cc2)C1 [Compound No. 7, 3-({1-[Bis(4-chlorophenyl)methyl]azetidin-3-yl}(methanesulphonyl)amino)-N-(2-hydroxyethyl)benzamide hydrochloride (1:1)] |
| 82% | 15 nM | 30% | 192 to 194 °C | C[C@@H](CO)NC(=O)c1cccc(N(C2CN(C(c3ccc(Cl)cc3)c3ccc(Cl)cc3)C2)S(C)(=O)=O)c1 [Compound No. 9, (+)-3-({1-[Bis(4-chlorophenyl)methyl]azetidin-3-yl}(methanesulphonyl)amino)-N-(2-hydroxy-1-methylethyl)benzamide] |
|  |  |  | 192 to 194 °C | CS(=O)(=O)N(c1cccc(C(=O)NC(CO)CO)c1)C1CN(C(c2ccc(Cl)cc2)c2ccc(Cl)cc2)C1 [Compound No. 17, 3-({1-[Bis(4-chlorophenyl)methyl]azetidin-3-yl}(methanesulphonyl)amino)-N-(2-hydroxy-1-(hydroxymethyl)ethyl)benzamide] |
|  | 20 nM |  | 144 to 146 °C | CS(=O)(=O)N(c1cc(F)cc(C(=O)NC(CO)CO)c1)C1CN(C(c2ccc(Cl)cc2)c2ccc(Cl)cc2)C1 [Compound No. 26, 3-({1-[Bis(4-chlorophenyl)methyl]azetidin-3-yl}(methanesulphonyl)amino)-5-fluoro-N-(2-hydroxy-1-(hydroxymethyl)ethyl)benzamide] |
| 58% |  |  | 159 to 161 °C | CC(CO)(CO)NC(=O)c1cc(F)cc(N(C2CN(C(c3ccc(Cl)cc3)c3ccc(Cl)cc3)C2)S(C)(=O)=O)c1 [Compound No. 27, 3-({1-[Bis(4-chlorophenyl)methyl]azetidin-3-yl}(methanesulphonyl)amino)-5-fluoro-N-(2-hydroxy-1-hydroxymethyl-1-methylethyl)benzamide] |
|  |  |  | 140 °C | CC(C)(O)CNC(=O)c1cccc(N(C2CN(C(c3ccc(Cl)cc3)c3ccc(Cl)cc3)C2)S(C)(=O)=O)c1 [compound 13, 3-({1-[bis(4-chlorophenyl)methyl]azetidin-3-yl}(methanesulphonyl)amino)-N-(2-hydroxy-2-methylprop-1-yl)benzamide] |
|  |  |  | 162 °C | CC(C)(CO)NC(=O)c1cccc(N(C2CN(C(c3ccc(Cl)cc3)c3ccc(Cl)cc3)C2)S(C)(=O)=O)c1 [compound 16, 3-({1-[bis(4-chlorophenyl)methyl]azetidin-3-yl}(methanesulphonyl)amino)-N-(2-hydroxy-1,1-dimethylethyl)benzamide] |
|  | 6 nM |  | 192 °C | CC(CO)(CO)NC(=O)c1cccc(N(C2CN(C(c3ccc(Cl)cc3)c3ccc(Cl)cc3)C2)S(C)(=O)=O)c1 [compound 18, 3-({1-[bis(4-chlorophenyl)methyl]azetidin-3-yl}(methanesulphonyl)amino)-N-[1,3-dihydroxy-2-methylprop-2-yl]benzamide] |
|  | 38 nM |  |  | CS(=O)(=O)N(c1cccc(C(=O)NC2(CCO)CC2)c1)C1CN(C(c2ccc(Cl)cc2)c2ccc(Cl)cc2)C1 [compound 21, 3-({1-[bis(4-chlorophenyl)methyl]azetidin-3-yl}(methanesulphonyl)amino)-N-[1-(2-hydroxyethyl)cyclopropyl]benzamide] |
|  | 66 nM |  |  | CS(=O)(=O)N(c1cc(F)cc(C(=O)NCC(O)C(F)(F)F)c1)C1CN(C(c2ccc(Cl)cc2)c2ccc(Cl)cc2)C1 (centres unmarked) [compound 30, 3-({1-[bis(4-chlorophenyl)methyl]azetidin-3-yl}(methanesulphonyl)amino)-5-fluoro-N-(3,3,3-trifluoro-2-hydroxyprop-1-yl)benzamide] |
| 85% | 16 nM |  |  | C[C@@H](CO)NC(=O)c1cc(N(C2CN(C(c3ccc(Cl)cc3)c3ccc(Cl)cc3)C2)S(C)(=O)=O)cc(C(F)(F)F)c1 [compound 36, (+)-3-({1-[bis(4-chlorophenyl)methyl]azetidin-3-yl}(methanesulphonyl)amino)-N—((S)-1-hydroxyprop-2-yl)-5-(trifluoromethyl)benzamide] |
